This is an account of results in patent US20060134063A1, “Agents for proliferating pancreatic beta-cells of the islets of langerhans, agents for suppressing apoptosis of said cells, and screening of candidate compounds for these agents” (priority 2000, published 2006).

SMILES strings stand for the structures.

In experiment [1] the test system is RINm5F cell lines, #1, #6, and #24, which stably express the Reg protein receptor. Kind of experiment: TUNEL apoptosis assay in RINm5F cell lines #1, #6, #24 expressing Reg protein receptor. The conditions noted are these: 1,000 nM Reg protein; 20 ng/ml IL-6, 100 nM dexamethasone, 10 mM nicotinamide; 24 h. In kind it is cell-based, rat.
Description: Rat insulinoma RINm5F cell lines, #1, #6, and #24, which stably express Reg protein receptor (Kobayashi, S. et al. (2000) J. Biol. Chem. 275, 10723-10726) were similarly cultured as in Example 4 and 1,000 nM Reg protein and HGF at varied concentrations, 0, 2.5, and 25 ng/ml were added thereto. Twenty-four hours after the addition of Reg protein/HGF, apoptosis was measured by TUNEL method using an Apoptosis Screening kit (Wako Pure Chemical Industries Ltd., Osaka, Japan) as described in Kobayashi, S. et al. (2000) J. Biol. Chem. 275, 10723-10726.
For the next experiment, the system named is HGF gene. Kind of experiment: RT-PCR of HGF gene expression in RINm5F cells. The format is cell-based, rat. The conditions noted are these: 10 mM nicotinamide; 24 h. As for the experimental part: Rat insulinoma RINm5F cells were seeded at 1.5×10^5 cells/ml in a 25-cm^2 culture bottle. […] After a further 24-h incubation, total RNA was prepared using cesium trifluoroacetate as described in […]. et al. (1993) J. Biol. Chem. 268, 26052-26054 and Akiyama, T. et al. (2001) Proc. Natl. Acad. Sci. USA 98, 48-53. RT-PCR was performed using this RNA as a template and primers corresponding to nucleotides 1,556-1,575 and 2,208-2,227 of rat HGF mRNA (Okajima, A. et al. (1990) Eur. J. Biochem. 193, 375-381) as described in Sun, W. et al. (1999) Brain Res. 851, 46-53, to detect the expression of HGF gene. PCR was carried out by a two-step protocol as described in Sun, W. et al. (1999) Brain Res. 851, 46-53, with 33 cycles of the first step [denaturation (95° C., 40 s), primer annealing (60° C., 40 s), and primer elongation (72° C., 1 min)] followed by the 5 cycles of the second step [denaturation ([…], 40 s), primer annealing (60° C., 40 s), and primer elongation (72° C., 1 min)].

For experiment [2], the system named is 5' upstream region of rat HGF gene. Kind of experiment: HGF promoter/luciferase reporter assay in RINm5F cells. In kind it is cell-based. To be noted: -1336 to +85 construct; 10 mM nicotinamide; 24 h. As for the experimental part: The 5′ upstream region (−1336 to +85) of rat HGF gene was inserted into the multicloning site of pGL3-Basic (Promega) to prepare a luciferase reporter gene construct. Rat insulinoma RINm5F cells were seeded at 1×10^5 cells/well in a 24-well plate, incubated for 2 days, then, transfected with the test luciferase reporter construct using DMRIE-C™ (Life Technologies, Inc.) as described in Akiyama, T. et al. (2001) Proc. Natl. Acad. Sci. USA 98, 48-53. […] Then, the cells were harvested in 1 ml of ice-cold phosphate-buffered saline (PBS), washed twice with PBS, and cell extracts were prepared in extraction buffer (0.1 M potassium phosphate, pH 6.8, 1 mM DTT). The protein concentration was determined using a Coomassie reagent kit (Pierce) and bovine serum albumin as a standard. Luciferase activity was determined using a chemiluminescence substrate and a Pica Gene™ Luminescence Kit (Toyo Ink Mfg. Co, Ltd., Tokyo, Japan). β-Galactosidase activity was measured using an Aurora™ GAL-XE (ICN).
Various lengths of 5′ upstream regions HGF gene (Okajima, A., Miyazawa, K. and Kitamura, N. (1993) Eur. J. Biochem. 213, 113-119 (GenBank Ac. No. D14341)) were inserted into the multicloning site of pGL3-Basic (Promega) to prepare luciferase reporter gene constructs (FIG. 10). […] The protein concentration was determined using a Coomassie reagent kit (Pierce) and bovine serum albumin as a standard. […]
On the technique in general: Reporter assays use an easily measured gene product as a stand-in for the process of interest.

Turning to `NC(=O)c1cccnc1` [nicotinamide], in experiment [1], the “apoptosis induced by Reg protein (TUNEL)” value is recorded as “did not”. In the experiment with HGF gene, the “HGF gene expression (RT-PCR), PARP inhibitor added to IL-6/dexamethasone” value is “further enhanced HGF gene expression”. Also, the “transcriptional activity of HGF gene (luciferase), nicotinamide added to IL-6/dexamethasone” value in experiment [2] is “further enhanced this transcriptional induction”.
